Results: US20110251247A1, “SUBSTITUTED ISOXAZOLINE DERIVATIVES” (PFIZER INC., priority 2010, published 2011)

How the values were obtained:
Format in all cases: in vivo
[1] = test system: Hard Tick Larvae (Rhipicephalus sanquineus); assay: Hard Tick Larvae (Rhipicephalus sanquineus) Whole Organism Contact Assay; conditions: tick larvae in coated vials; knockdown examined at approximately 24 and 48 hours
Procedure: Hard Tick Larvae (Rhipicephalus sanquineus) Whole Organism Contact Assay
Formula (1) compounds were dissolved in isopropyl alcohol (IPA) and aliquots were added to vials placed on a roller for at least 2 hours to allow the IPA to evaporate. IPA alone was used as a negative control and fipronil was used as a positive control. Approximately 50-200 tick larvae were added to the vials using a swab and the vials were closed. At approximately 24 and 48 hours, the vials were examined and knockdown was recorded as active. Vials showing knockdown were examined for tick paralysis and/or death at approximately 48 hrs. Endpoint data can be recorded as an effective dose 100% (ED^100) and/or a lethal dose 100% (LD^100) in μg/cm^2.

[2] = test system: Horn Fly (Haematobia irritans); assay: Horn Fly (Haematobia irritans) Feed Assay; conditions: horn flies fed on treated citrated bovine blood; knockdown and mortality at approximately 2 and 24 hours
Procedure: Horn Fly (Haematobia irritans) Feed Assay
Formula (1) compounds were dissolved in DMSO and aliquots were added to citrated bovine blood in a membrane covered Petri dish. Approximately ten horn flies were placed onto each Petri dish and covered. The flies were allowed to feed on the treated blood cell. Flies were held at approximately 80° F. with a minimum of approximately 50% relative humidity. Flies were examined for knockdown and mortality at approximately 2 and 24 hours. Endpoint data were recorded as a lethal dose 90% (LD^90) in μg/mL.

[3] = test system: Flea (Ctenocephalides felis); assay: Flea (Ctenocephalides felis) Membrane Feed Assay-Adult; conditions: adult fleas fed on treated citrated bovine blood for approximately 2 hours; knockdown and/or death at approximately 2 and 24 hours
Procedure: Flea (Ctenocephalides felis) Membrane Feed Assay-Adult
Formula (1) compounds were dissolved in DMSO and aliquots were added to citrated bovine blood in a membrane covered Petri dish pre-warmed to 37° C. Feeding tubes containing approximately 30-35 adult fleas were placed onto the Petri dishes. The fleas were allowed to feed for approximately 2 hours. […] Endpoint data were recorded as an efficacious dose 80% (ED^80) in μg/mL.

Structure (SMILES) | ED^100 (effective dose 100%) [1] | LD^90 (lethal dose 90%) [2] | ED^80 (efficacious dose 80%) [3]
CCNC(=O)CC(=O)NCc1cc(C2=NOC(c3cc(Cl)c(Cl)c(Cl)c3)(C(F)(F)F)C2)ccc1F (stereo not shown) [Example 1, N-ethyl-N′-{2-fluoro-5-[5-(3,4,5-trichloro-phenyl)-5-trifluoromethyl-4,5-dihydro-isoxazol-3-yl]-benzyl}-malonamide] | 10.0 μg/cm^2 |  | 
O=C(CC(=O)NCC1CC1)NCc1cc(C2=NOC(c3cc(Cl)c(Cl)c(Cl)c3)(C(F)(F)F)C2)ccc1F (stereo not shown) [Example 2, N-Cyclopropylmethyl-N′-{2-fluoro-5-[5-(3,4,5-trichloro-phenyl)-5-trifluoromethyl-4,5-dihydro-isoxazol-3-yl]-benzyl}-malonamide] | 10.0 μg/cm^2 |  | 
CC(=O)NCc1cc(C2=NOC(c3cc(Cl)c(Cl)c(Cl)c3)(C(F)(F)F)C2)ccc1F (stereo not shown) [Example 3, N-{5-[5-(3,4,5-trichlorophenyl)-5-(trifluoromethyl)-4,5-dihydroisoxazol-3-yl]-2-fluorobenzyl}acetamide] |  | 10 µg/mL | 3 µg/mL
CC(C)C(=O)NCc1cc(C2=NOC(c3cc(Cl)c(Cl)c(Cl)c3)(C(F)(F)F)C2)ccc1F (stereo not shown) [Example 4, N-{2-fluoro-5-[5-(3,4,5-trichlorophenyl)-5-(trifluoromethyl)-4,5-dihydroisoxazol-3-yl]benzyl}-2-methylpropanamide] |  | 1 µg/mL | 
O=C(NCc1cc(C2=NOC(c3cc(Cl)c(Cl)c(Cl)c3)(C(F)(F)F)C2)ccc1F)C1CC1 (stereo not shown) [Example 5, N-{2-fluoro-5-[5-(3,4,5-trichlorophenyl)-5-(trifluoromethyl)-4,5-dihydroisoxazol-3-yl]benzyl}cyclopropanecarboxamide] |  | 1 µg/mL | 3 µg/mL
O=C(NCc1cc(C2=NOC(c3cc(Cl)c(Cl)c(Cl)c3)(C(F)(F)F)C2)ccc1F)C1CCC1 (stereo not shown) [Example 6, N-{2-fluoro-5-[5-(3,4,5-trichlorophenyl)-5-(trifluoromethyl)-4,5-dihydroisoxazol-3-yl]benzyl}cyclobutanecarboxamide] |  | 3 µg/mL | 10 µg/mL
CCC(=O)NCc1cc(C2=NOC(c3cc(Cl)c(Cl)c(Cl)c3)(C(F)(F)F)C2)ccc1F (stereo not shown) [Example 7, N-{2-fluoro-5-[5-(3,4,5-trichlorophenyl)-5-(trifluoromethyl)-4,5-dihydroisoxazol-3-yl]benzyl}propanamide] |  | 1 µg/mL | 10 µg/mL
O=C(CC1CC1)NCc1cc(C2=NOC(c3cc(Cl)c(Cl)c(Cl)c3)(C(F)(F)F)C2)ccc1F (stereo not shown) [Example 8, 2-cyclopropyl-N-{2-fluoro-5-[5-(3,4,5-trichlorophenyl)-5-(trifluoromethyl)-4,5-dihydroisoxazol-3-yl]benzyl}acetamide] |  | 3 µg/mL | 
CC(C)CC(=O)NCc1cc(C2=NOC(c3cc(Cl)c(Cl)c(Cl)c3)(C(F)(F)F)C2)ccc1F (stereo not shown) [Example 9, N-{2-fluoro-5-[5-(3,4,5-trichlorophenyl)-5-(trifluoromethyl)-4,5-dihydroisoxazol-3-yl]benzyl}-3-methylbutanamide] |  | 3 µg/mL | 
CC(=O)NCc1cc(C2=NOC(c3cc(Cl)c(F)c(Cl)c3)(C(F)(F)F)C2)ccc1F (stereo not shown) [Example 11, N-{5-[5-(3,5-dichloro-4-fluorophenyl)-5-(trifluoromethyl)-4,5-dihydroisoxazol-3-yl]-2-fluorobenzyl}acetamide] |  | 3 µg/mL | 
O=C(NCc1cc(C2=NOC(c3cc(Cl)c(F)c(Cl)c3)(C(F)(F)F)C2)ccc1F)C1CC1 (stereo not shown) [Example 12, N-{5-[5-(3,5-dichloro-4-fluorophenyl)-5-(trifluoromethyl)-4,5-dihydroisoxazol-3-yl]-2-fluorobenzyl}cyclopropanecarboxamide] |  |  | 3 µg/mL
O=C(NCc1cc(C2=NOC(c3cc(Cl)c(F)c(Cl)c3)(C(F)(F)F)C2)ccc1F)C1CC(F)(F)C1 (stereo not shown) [Example 13, N-{5-[5-(3,5-dichloro-4-fluorophenyl)-5-(trifluoromethyl)-4,5-dihydroisoxazol-3-yl]-2-fluorobenzyl}-3,3-difluorocyclobutanecarboxamide] |  |  | 3 µg/mL
CC(=O)NCc1cc(C2=NOC(c3cc(Cl)c(F)c(Cl)c3)(C(F)(F)F)C2)ccc1Cl (stereo not shown) [Example 17, N-{2-chloro-5-[5-(3,5-dichloro-4-fluorophenyl)-5-(trifluoromethyl)-4,5-dihydroisoxazol-3-yl]benzyl}acetamide] |  | 1 µg/mL | 
CC(=O)NCc1cc(C2=NOC(c3cc(Cl)c(Cl)c(Cl)c3)(C(F)(F)F)C2)ccc1Br (stereo not shown) [Example 18, N-(2-bromo-5-(5-(3,4,5-trichlorophenyl)-5-(trifluoromethyl)-4,5-dihydroisoxazol-3-yl)benzyl)acetamide] |  | 1 µg/mL | 10 µg/mL
